Molecules are shown by their SMILES. ± gives the expanded uncertainty stated by the source.

Two compounds from the NIST ThermoML archive (doi:10.1021/je500448j) can be followed below.

For the data set the following is noted: 298.15 K; 101.33 kPa; Liquid; Vibrating tube method.

With `CN(C)c1ccccc1` [N,N-dimethylaniline], the mass density came to 952.05 ± 0.23 kg/m3.

As to `Nc1ccccc1` [aniline], the mass density came to 1017.39 ± 0.09 kg/m3.

As a reminder, the mass density is mass per unit of volume.
